Tests used:
[1] = cited from earlier work
[2] = target: T1, OATP1B1 (Homo sapiens, UniProt Q9Y6L6); assay: Uptake into stable transfected OATP1B1 HEK 293 cells; type: cell-based; details: for Uptake into OATP1B1-HEK 293 cells: 100 μM, 40 min, relative to RC1
T1 sequence (Q9Y6L6 1-691): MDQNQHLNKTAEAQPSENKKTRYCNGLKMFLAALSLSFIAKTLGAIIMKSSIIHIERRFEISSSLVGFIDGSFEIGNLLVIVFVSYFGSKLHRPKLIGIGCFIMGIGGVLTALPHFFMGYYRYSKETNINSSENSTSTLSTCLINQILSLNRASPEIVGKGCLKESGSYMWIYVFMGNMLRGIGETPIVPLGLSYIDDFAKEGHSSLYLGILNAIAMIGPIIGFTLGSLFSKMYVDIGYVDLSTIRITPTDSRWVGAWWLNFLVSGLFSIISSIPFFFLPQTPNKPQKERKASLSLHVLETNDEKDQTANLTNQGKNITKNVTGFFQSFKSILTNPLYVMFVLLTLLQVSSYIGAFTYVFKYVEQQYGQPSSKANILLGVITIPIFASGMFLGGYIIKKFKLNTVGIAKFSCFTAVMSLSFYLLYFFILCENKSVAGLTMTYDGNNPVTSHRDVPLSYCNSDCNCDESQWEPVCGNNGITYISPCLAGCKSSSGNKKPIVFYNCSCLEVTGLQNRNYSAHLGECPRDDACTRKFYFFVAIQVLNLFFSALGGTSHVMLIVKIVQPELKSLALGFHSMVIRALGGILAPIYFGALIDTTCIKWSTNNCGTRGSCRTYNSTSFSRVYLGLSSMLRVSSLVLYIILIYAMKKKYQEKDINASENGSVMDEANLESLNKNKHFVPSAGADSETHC
Experimental: Cryopreserved cells were shortly thawed in water bath and diluted in 10 mL warm culture medium (37° C.). After medium change the cells were grown for 3 d in a 25 cm^2 cell culture flask. After 3 to 5 d the cells were transferred into 75 cm^2 flasks. […] All test items were prepared in transport buffer at a final concentration of 100 μM from stock solutions (180 to 500 mM concentration). The OATP1B1 HEK 293 cells were incubated with test solutions (test item in transport buffer 500 μL) for 40 min on a thermoshaker without shaking (PHMP, Fa. Grant Bio). Triplicates were performed for each test item. After incubation the cells were washed with 2 mL of cold PBS (+) buffer (Dulbeccos PBS+, Fa. Gibco). The OATP1B1 HEK 293 cells were lysed by addition of 500 μL cold 0.01% Triton-X 100 in Millipore water for 1 h. […] After 1 h 500 μL of 1 nM Terbium ICP-MS standard was added in 2% nitric acid and 0.01% Triton 100.

[3] = Partition coefficient (logP butanol/buffer); type: physicochemical; details: 1-butanol / 50 mM Tris-HCl, pH 7.4, room temperature
[4] = Excretion study in rats (5 days) and residual gadolinium organ distribution (7 days); type: in vivo, rat; details: male rats, 0.1 mmol Gd/kg bw i.v.; for Σ organs and carcass: 7 d post injection
Experimental: The excretion and organ distribution of Example 1 and 15 were determined in male rats (Han-Wistar, n=3). The compound was administered as a sterile aqueous solution (50 mmol Gd/L) as a bolus in the tail vein of the animals. The dose was 0.1 mmol Gd/kg bw.
Urine was collected in the following time periods 0-1 h, 1-3 h, 3-6 h, 6-24 h, 1-2 d and 2-5 d post injection […] and feces 0-1 d, 1-2 d and 2-5 d post injection. As a control, 3 animals were treated in the same way with RC1. On day 7 the animals were sacrificed, and the following organs were excised: blood, liver, kidney, spleen, heart, lung, brain, muscle, skin, stomach, gut, bone and bone marrow. The remaining carcass was freeze dried and ground to a fine powder. The Gd concentration in the organs and the carcass was determined by ICP-MS (ICP-MS Agilent 7500a, Waldbronn, Germany). The compounds are excreted via dual pathway (liver and kidney). Less than 1% of the administered dose was present in the body 7 days after the injection.

[5] = Biliary elimination in bile duct cannulated rats; details: BDC rats, i.v. bolus
Experimental: All animals are initially anesthetized using a body weight-adjusted intramuscular injection of a mixture (1+2) of xylazine hydrochloride (20 mg/mL, Rompun 2%, Bayer Vital GmbH, Leverkusen) and ketamine hydrochloride (100 mg/mL, Ketavet, Pfizer, Pharmacia GmbH, Berlin) using 1 mL/kg body weight. The continuous anesthesia of the animals is achieved by the intravenous injection of 1.5 mL per hour (Braun perfusor infusion of 1+2, 1:20 saline, xylazine hydrochloride 20 mg/mL, Rompun 2%, Bayer Vital GmbH, Leverkusen and ketamine hydrochloride 100 mg/mL, Ketavet, Pfizer, Pharmacia GmbH, Berlin) via tail vein (Introcan, 24G, yellow). The animals received 0.1 mol Gd/kg bw as intravenous bolus injection via tail vein (50 mmol Gd/L formulation). Bile was sampled 0-0.5 h, 0.5-1 h, 1-2 h, 2-3 h und 3-4 h post injection. […] The bile fractions (n=3 times 10 μL) were dried for 2 h at 90° C. and 50 μL 65% nitric acid (HNO3, Fa. Fisher, Optima Grade #1219010) and 30 μL hydrogen peroxide 30% (H2O2 Fa VWR Chemicals, AnalaR NORMAPUR, #18J024022) were added and processed in microwave oven (5 cycles: 5 min 40 W, 5 min 120 W, 10 min 200 W, 10 min 320 W and 25 min 400 W, Fa. CEM, Mars5 Xpress).

[6] = 1.5 T, 37° C., from Rohrer et al., cited from earlier work; for r1 human plasma: bovine plasma instead of human plasma
[7] = Complex stability (transmetallation with Zn2+); type: physicochemical; details: 72 hours, 2.5 mM Zn^2+, 26 mM phosphate buffer, 37° C., pH 7.4
Text: If test compounds are instable under these conditions, transmetallation during this test would lead to the formation of the Zn^2+ complex of the test item, while Gd^3+ is released and precipitated as highly insoluble GdPO4.

[8] = Water solubility in aqueous buffer; type: physicochemical; details: aqueous buffer 10 mM Tris-HCl, pH 7.4, 20° C.
Experimental: The solid compounds were added stepwise to the buffer solution.
More substance is added once all the suspended material is dissolved until an equilibrium between undissolved and dissolved substance is reached. The suspension was mixed using a shaker (Heidolph Reax 2000) and treated 5 mn in an ultrasound bath (Bandelin, Sonorex Super RK255H).

[9] = In vivo pharmacokinetics following i.v. administration in rat; details: i.v. bolus, dose 100 μmol/kg bw
Experimental: Pharmacokinetic parameters of Example 1 and 15 and were determined in male and female rats (Han-Wistar, n=4). […] The samples were digested using strong acidic and oxidizing conditions at elevated temperature following dilution in 1% nitric acid to bring the samples in the quantification range of the method. The lower limit of quantitation amounts to 1 nmol/L for all elements and the upper limit to 1000 nmol/L in the diluted sample.
The fit of the obtained data to a three-compartment model (Phoenix, WinNonlin 6.4, 3-compartment mode) yielded the pharmacokinetic parameters which are shown in Table 8.

[10] = target: T2, OATP1B3 (Homo sapiens, UniProt Q9NPD5); assay: Uptake into stable transfected OATP1B3 HEK 293 cells; type: cell-based
T2 sequence (Q9NPD5 1-702): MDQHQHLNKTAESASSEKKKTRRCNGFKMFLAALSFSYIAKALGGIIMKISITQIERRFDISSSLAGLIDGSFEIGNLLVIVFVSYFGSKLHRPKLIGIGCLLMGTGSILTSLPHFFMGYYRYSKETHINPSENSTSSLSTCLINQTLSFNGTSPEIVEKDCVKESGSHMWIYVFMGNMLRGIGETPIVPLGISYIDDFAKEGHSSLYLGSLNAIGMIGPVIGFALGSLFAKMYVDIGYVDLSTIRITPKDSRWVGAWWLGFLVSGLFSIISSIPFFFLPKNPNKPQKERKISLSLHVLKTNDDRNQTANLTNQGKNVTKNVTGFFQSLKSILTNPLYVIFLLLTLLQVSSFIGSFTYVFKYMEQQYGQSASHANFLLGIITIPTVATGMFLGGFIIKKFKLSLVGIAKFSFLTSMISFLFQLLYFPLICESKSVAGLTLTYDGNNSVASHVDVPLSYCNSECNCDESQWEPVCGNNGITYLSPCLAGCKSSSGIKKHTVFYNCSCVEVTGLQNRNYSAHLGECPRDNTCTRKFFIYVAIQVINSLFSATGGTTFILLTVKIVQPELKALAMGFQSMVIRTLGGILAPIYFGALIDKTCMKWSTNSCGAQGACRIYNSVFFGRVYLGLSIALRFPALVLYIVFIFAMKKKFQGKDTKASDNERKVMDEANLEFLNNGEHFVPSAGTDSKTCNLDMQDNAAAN

[11] = tested on: freshly isolated rat hepatocytes; assay: Uptake into freshly isolated rat hepatocytes; type: cell-based
Experimental: After incubation the adherent hepatocytes were washed once with 37° C. Hepes carbonate transport buffer (500 μL/well). The test items and RC1 were prepared from stock solutions (180 to 500 mM concentration) in Hepes carbonate transport buffer at pH 7.4 to reach a final concentration of 100 μmol Gd/L. The specific uptake of the test item or RC1 into rat hepatocytes via OATP1B1 and OATP1B3 was challenged using a known OATP1B1/1B3 inhibitor (Rifampicine, Fa. Sigma R3501, test item and inhibitor 1:1 each 100 μM final concentration). The prepared rat hepatocyte plates were incubated with test solutions (500 μL/well) at 37° C. for 10 min using a thermoshaker (Fa. Grant Bio, PHMP). Triplicates were performed for each test item. After incubating the cells were washed once with cold PBS buffer (Fa. Gibco, Dulbeccos PBS (+)). After washing the intact hepatocytes were lysed by addition of 500 μL cold 0.01% Triton-X 100 in Millipore water for 1 h. […] As a reference standard RC1 is used in the same well plate. The hepatocyte uptake of the test compound is calculated relative to RC1 (resulting in the unit % of RC1).

O=C([O-])CN(CCN(CC(=O)[O-])CC(=O)[O-])CCN(CC(=O)[O-])C(COCc1ccccc1)C(=O)[O-].[Gd+3].[H+].[H+] (centres unmarked) [Gd-BOPTA, gadobenic acid]
secreted into the bile ([1]; Seale et al. 2009): 3-to-5%

CCOCCOCCOc1ccc(CCCC(C(=O)O)N2CCN(CC(=O)[O-])CCN(CC(=O)[O-])CCN(CC(=O)[O-])CC2)cc1.[Gd+3] (centres unmarked) [Example 25, gadolinium 2,2′,2″-{10-[1-carboxy-4-{4-[2-(2-ethoxyethoxy)ethoxy]phenyl}butyl]-1,4,7,10-tetraazacyclododecane-1,4,7-triyl}triacetate]
Uptake into OATP1B1-HEK 293 cells [2]: 301 % of RC1 | Log P (butanol/buffer) [3]: −1.00

CCOc1ccc(CCOCC(C(=O)O)N2CCN(CC(=O)[O-])CCN(CC(=O)[O-])CCN(CC(=O)[O-])CC2)cc1.[Gd+3] (centres unmarked) [Example 1, gadolinium 2,2′,2″-(10-{1-carboxy-2-[2-(4-ethoxyphenyl)ethoxy]ethyl}-1,4,7,10-tetraazacyclododecane-1,4,7-triyl)triacetate]
Log P (butanol/buffer) [3]: −0.98 | Excretion Urine ([4]; 0-1 h post injection): 39.8 ± 6.8% Dose | Excretion Feces ([4]; 0-1 d post injection): 55.6 ± 5.6% Dose | Excretion Urine ([4]; 1-3 h post injection): 40.3 ± 6.8% Dose | Excretion Feces ([4]; 1-2 d post injection): 56.9 ± 6.6% Dose | Excretion Urine ([4]; 1-2 d post injection): 40.9 ± 7.4% Dose | Excretion Feces ([4]; 2-5 d post injection): 57.0 ± 6.6% Dose | Excretion Urine ([4]; 2-5 d post injection): 40.9 ± 7.4% Dose | Excretion Urine ([4]; 3-6 h post injection): 40.3 ± 6.8% Dose | Excretion Urine ([4]; 6-24 h post injection): 40.8 ± 7.4% Dose | Σ organs and carcass [4]: 0.65 ± 0.07% Dose | Total recovery [4]: 98.6 ± 2.1% Dose | Biliary excretion, Mean ± SD (cumulative) ([5]; bile fraction 0-0.5 h): 55.5 ± 1.7% of injected dose | Biliary excretion, Mean ± SD (cumulative) ([5]; bile fraction 0.5-1 h): 62.6 ± 0.7% of injected dose | Biliary excretion, Mean ± SD (cumulative) ([5]; bile fraction 1-2 h): 65.1 ± 1.3% of injected dose | Biliary excretion, Mean ± SD (cumulative) ([5]; bile fraction 2-3 h): 65.6 ± 1.6% of injected dose | Biliary excretion, Mean ± SD (cumulative) ([5]; bile fraction 3-4 h): 65.8 ± 1.7% of injected dose

CCOc1ccc(C[C@@H](CN(CCN(CC(=O)[O-])CC(=O)[O-])CC(=O)[O-])N(CC(=O)[O-])CC(=O)[O-])cc1.[Gd+3].[H+].[H+] [Gd-EOB-DTPA, gadoxetic acid]
excreted into the bile ([1]; in vivo): up to 50 % of the administered dose

O=C([O-])CN1CCN(CC(=O)[O-])CCN([C@H](CO)[C@H](O)CO)CCN(CC(=O)[O-])CC1.[Gd+3] (racemic) [RC3, gadobutrol, reference compound]
Log P (butanol/buffer) [3]: −2.22 | r1 human plasma [6]: 5.2 L/mmol/s

CCOc1ccc(C[C@@H](CN(CCN(CC(=O)[O-])CC(=O)[O-])CC(=O)[O-])N(CC(=O)[O-])CC(=O)[O-])cc1.[Gd+3].[H+].[H+] [RC1, Gd-EOB-DTPA]
Uptake into OATP1B1-HEK 293 cells [2]: 100 % of RC1 | Inhibition Rifampicine ([2]; OATP1B1-HEK 293 cells): 81 % inhibition | Log P (butanol/buffer) [3]: −2.12 | Excretion Urine ([4]; 0-1 h post injection): 23.2 ± 1.6% Dose | Excretion Feces ([4]; 0-1 d post injection): 77.5 ± 2.7% Dose | Excretion Urine ([4]; 1-3 h post injection): 23.5 ± 1.5% Dose | Excretion Feces ([4]; 1-2 d post injection): 80.6 ± 2.9% Dose | Excretion Urine ([4]; 1-2 d post injection): 23.7 ± 1.5% Dose | Excretion Feces ([4]; 2-5 d post injection): 80.8 ± 2.9% Dose | Excretion Urine ([4]; 2-5 d post injection): 23.7 ± 1.5% Dose | Excretion Urine ([4]; 3-6 h post injection): 23.6 ± 1.5% Dose | Excretion Urine ([4]; 6-24 h post injection): 23.7 ± 1.5% Dose | Σ organs and carcass [4]: 0.14 ± 0.08% Dose | Total recovery [4]: 104.6 ± 2.4% Dose | Transmetallation stability [7]: 44% | Solubility [8]: >250 mM | AUCnorm Area under the curve [9]: 0.40 kg·h/L | Clplasma Plasma clearance [9]: 40 mL/min/kg | Vss Volume of distribution at steady state [9]: 0.9 L/kg | t½ α Half-life, compartment V1 [9]: 2 min | t½ β Half-life, compartment V2 [9]: 8 min | t½ γ Half-life, compartment V3 [9]: 390 min | Uptake into OATP1B3-HEK 293 cells ([10]; 100 μM, 40 min, relative to RC1): 100 % of RC1 | Inhibition Rifampicine ([10]; OATP1B3-HEK 293 cells): 99 % inhibition | r1 human plasma [6]: 5.2 L/mmol/s | r1 water ([6]; water): 3.3 L/mmol/s | Uptake rat hepatocytes ([11]; 100 μmol Gd/L, 10 min, 37° C., relative to RC1): 100 % of RC1 | Inhibition Rifampicine ([11]; test item and Rifampicine 1:1 each 100 μM): 97 % inhibition

O=C([O-])CN(CCN(CC(=O)[O-])CC(=O)[O-])CCN(CC(=O)[O-])C(COCc1ccccc1)C(=O)[O-].[Gd+3] (centres unmarked) [RC2, Gd-BOPTA, reference compound]
Log P (butanol/buffer) [3]: −2.07 | r1 human plasma [6]: 4.1 L/mmol/s

Source: patent US20240182431A1, “NEW CONTRAST AGENT FOR USE IN MAGNETIC RESONANCE IMAGING” (Bayer Aktiengesellschaft, priority 2021, published 2024)
